{
  "source": "ChEMBL document CHEMBL5029185",
  "about": "“Discovery of Novel Polycyclic Heterocyclic Derivatives from Evodiamine for the Potential Treatment of Triple-Negative Breast Cancer” (J Med Chem, 2021)",
  "key": {"[1]": {"tested_on": "MDA-MB-231", "test": "Antiproliferative activity against human MDA-MB-231 cells assessed as inhibition rate at 10 uM incubated for 72 hrs by MTT assay", "format": "functional"}, "[2]": {"tested_on": "MDA-MB-231", "test": "Antiproliferative activity against human MDA-MB-231 cells assessed as inhibition rate at 1 uM incubated for 72 hrs by MTT assay", "format": "functional"}, "[3]": {"tested_on": "A549", "test": "Antiproliferative activity against human A549 cells assessed as inhibition rate incubated for 72 hrs by MTT assay", "format": "functional, cell-based", "conditions": "A549, 72 h"}, "[4]": {"tested_on": "MCF7", "test": "Antiproliferative activity against human MCF7 cells assessed as inhibition rate incubated for 72 hrs by MTT assay", "format": "functional, cell-based", "conditions": "MCF7, 72 h"}, "[5]": {"tested_on": "H22", "test": "Antiproliferative activity against mouse H22 cells assessed as inhibition rate incubated for 72 hrs by MTT assay", "format": "functional, cell-based", "conditions": "H22, 72 h"}, "[6]": {"target": "DNA topoisomerase 2-alpha (Homo sapiens) (UniProt P11388)", "sequence (P11388 whole entry)": "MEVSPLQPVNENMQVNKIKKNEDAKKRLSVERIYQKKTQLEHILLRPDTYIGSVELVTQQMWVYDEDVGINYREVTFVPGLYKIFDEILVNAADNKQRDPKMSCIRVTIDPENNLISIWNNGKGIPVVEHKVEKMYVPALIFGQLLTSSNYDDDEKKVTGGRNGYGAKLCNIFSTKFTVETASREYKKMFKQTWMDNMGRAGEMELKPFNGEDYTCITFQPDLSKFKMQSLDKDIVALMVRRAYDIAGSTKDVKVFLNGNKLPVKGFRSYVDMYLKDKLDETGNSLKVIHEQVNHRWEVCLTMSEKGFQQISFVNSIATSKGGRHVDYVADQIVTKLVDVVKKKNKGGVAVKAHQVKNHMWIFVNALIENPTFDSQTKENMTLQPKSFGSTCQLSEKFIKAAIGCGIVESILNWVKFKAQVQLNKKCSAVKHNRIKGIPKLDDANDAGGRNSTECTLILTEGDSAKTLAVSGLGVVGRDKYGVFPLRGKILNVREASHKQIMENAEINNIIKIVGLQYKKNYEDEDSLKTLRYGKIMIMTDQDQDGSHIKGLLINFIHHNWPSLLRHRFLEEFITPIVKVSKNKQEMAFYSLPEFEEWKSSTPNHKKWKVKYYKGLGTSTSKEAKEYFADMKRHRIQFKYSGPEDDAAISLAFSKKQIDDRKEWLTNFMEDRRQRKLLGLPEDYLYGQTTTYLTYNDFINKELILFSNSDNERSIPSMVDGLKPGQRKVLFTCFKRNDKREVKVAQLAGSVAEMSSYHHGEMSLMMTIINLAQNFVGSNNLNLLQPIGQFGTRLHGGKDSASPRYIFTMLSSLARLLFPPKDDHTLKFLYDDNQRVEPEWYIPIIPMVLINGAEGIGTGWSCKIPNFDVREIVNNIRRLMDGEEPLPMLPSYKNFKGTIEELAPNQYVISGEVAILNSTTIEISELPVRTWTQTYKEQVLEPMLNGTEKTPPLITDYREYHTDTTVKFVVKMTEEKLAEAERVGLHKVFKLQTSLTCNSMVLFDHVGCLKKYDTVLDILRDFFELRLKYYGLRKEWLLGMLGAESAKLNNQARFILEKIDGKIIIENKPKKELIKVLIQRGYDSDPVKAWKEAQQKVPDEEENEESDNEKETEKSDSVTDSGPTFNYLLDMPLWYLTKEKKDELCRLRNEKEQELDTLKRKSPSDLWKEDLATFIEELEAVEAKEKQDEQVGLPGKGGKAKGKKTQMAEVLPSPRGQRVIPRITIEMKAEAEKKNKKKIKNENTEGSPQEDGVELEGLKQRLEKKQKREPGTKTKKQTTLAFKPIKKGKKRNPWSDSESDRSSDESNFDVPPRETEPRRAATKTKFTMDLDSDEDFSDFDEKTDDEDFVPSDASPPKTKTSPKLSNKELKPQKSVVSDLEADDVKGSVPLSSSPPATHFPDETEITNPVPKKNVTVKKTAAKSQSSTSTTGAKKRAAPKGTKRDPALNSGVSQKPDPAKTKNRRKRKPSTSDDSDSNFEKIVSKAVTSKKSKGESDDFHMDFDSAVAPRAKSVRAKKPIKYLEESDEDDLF", "test": "Inhibition of topoisomerase 2 (unknown origin) assessed as relaxation of supercoiled kDNA at 100 to 500 uM incubated for 30 mins by agarose gel electrophoresis", "conditions": "dose 100-500 µM"}, "[7]": {"target": "T1, DNA topoisomerase 1 (Homo sapiens) (UniProt P11387)", "T1 sequence (whole entry)": "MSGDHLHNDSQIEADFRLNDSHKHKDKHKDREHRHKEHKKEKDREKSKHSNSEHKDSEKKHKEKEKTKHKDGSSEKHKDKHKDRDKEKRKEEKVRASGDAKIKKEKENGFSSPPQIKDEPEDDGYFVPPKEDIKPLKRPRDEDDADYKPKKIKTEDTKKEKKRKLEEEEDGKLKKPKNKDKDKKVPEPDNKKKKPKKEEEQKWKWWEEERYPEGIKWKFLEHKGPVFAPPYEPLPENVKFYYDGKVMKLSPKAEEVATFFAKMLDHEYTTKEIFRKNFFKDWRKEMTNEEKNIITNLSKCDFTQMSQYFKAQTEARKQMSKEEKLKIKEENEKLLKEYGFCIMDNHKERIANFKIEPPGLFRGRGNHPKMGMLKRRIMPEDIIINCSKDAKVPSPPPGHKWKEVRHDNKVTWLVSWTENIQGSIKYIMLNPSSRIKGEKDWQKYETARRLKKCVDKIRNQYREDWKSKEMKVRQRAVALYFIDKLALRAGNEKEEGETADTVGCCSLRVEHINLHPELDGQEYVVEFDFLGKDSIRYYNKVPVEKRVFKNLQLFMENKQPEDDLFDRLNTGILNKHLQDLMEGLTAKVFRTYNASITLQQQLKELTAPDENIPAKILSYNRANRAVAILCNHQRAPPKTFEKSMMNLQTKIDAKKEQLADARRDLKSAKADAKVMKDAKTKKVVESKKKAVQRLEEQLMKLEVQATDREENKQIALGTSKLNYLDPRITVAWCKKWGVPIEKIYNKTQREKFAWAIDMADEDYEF", "test": "Induction of topoisomerase 1-DNA cleavable complex in human MDA-MB-231 cells assessed as increase in cleavable complex by measuring SDS-K+ precipitable complex at 15 uM measured up to 15 hrs by liquid scintillation counting analysis", "format": "cell-based", "conditions": "time hrs <=15"}, "[8]": {"target": "T1, DNA topoisomerase 1 (Homo sapiens)", "test": "Induction of topoisomerase 1-DNA cleavable complex in human MDA-MB-231 cells assessed as decrease in free Top1 in nuclear extract at 30 uM measured up to 9 hrs by Immunoband depletion assay", "format": "cell-based", "conditions": "time hrs <=9"}, "[9]": {"test": "Ratio of IC50 for antiproliferative activity against human MDA-MB-231 cells transfected with siRNA-Top1 to IC50 for antiproliferative activity against human MDA-MB-231 cells transfected with siRNA-Ctrl assessed as cell viability by MTT assay", "format": "functional"}, "[10]": {"tested_on": "MDA-MB-231", "test": "Induction of ROS generation in human MDA-MB-231 cells transfected with siRNA-Top1 by fluorescent dye […] based flow cytometry", "format": "functional, cell-based"}, "[11]": {"tested_on": "MDA-MB-231", "test": "Induction of DNA damage in human MDA-MB-231 cells assessed as ROS-mediated oxidative DNA lesions at 0.4 uM measured after 12 hrs by alkaline comet assay", "format": "functional, cell-based"}, "[12]": {"tested_on": "MDA-MB-231", "test": "Induction of mitochondrial membrane disruption in human MDA-MB-231 cells assessed as mitochondrial dysfunction at 0.2 uM measured after 48 hrs by JC-1 staining based flow cytometry (reference value: 3%)", "format": "functional"}, "[13]": {"tested_on": "MDA-MB-231", "test": "Induction of apoptosis in human MDA-MB-231 cells assessed as increase in Bax expression at 0.1 to 0.4 uM measured after 48 hrs by Western blot analysis", "format": "functional, cell-based", "conditions": "dose 0.1-0.4 µM"}, "[14]": {"tested_on": "MDA-MB-231", "test": "Induction of apoptosis in human MDA-MB-231 cells assessed as decrease in Bcl-2 expression at 0.1 to 0.4 uM measured after 48 hrs by Western blot analysis", "format": "functional, cell-based", "conditions": "dose 0.1-0.4 µM"}, "[15]": {"tested_on": "MDA-MB-231", "test": "Induction cell cycle arrest in human MDA-MB-231 cells assessed as accumulation at G1 phase at 0.2 uM measured after 48 hrs by PI staining based flow cytometry (reference value: 53.7%)", "format": "functional"}, "[16]": {"tested_on": "MDA-MB-231", "test": "Induction cell cycle arrest in human MDA-MB-231 cells assessed as accumulation at G2 phase at 0.2 uM measured after 48 hrs by PI staining based flow cytometry (reference value: 10.2%)", "format": "functional"}, "[17]": {"tested_on": "MDA-MB-231", "test": "Induction cell cycle arrest in human MDA-MB-231 cells assessed as accumulation at S phase at 0.2 uM measured after 48 hrs by PI staining based flow cytometry (reference value: 36%)", "format": "functional"}, "[18]": {"tested_on": "MDA-MB-231", "test": "Induction cell cycle arrest in human MDA-MB-231 cells assessed as accumulation at G1 phase at 0.4 uM measured after 48 hrs by PI staining based flow cytometry (reference value: 53.7%)", "format": "functional"}, "[19]": {"tested_on": "MDA-MB-231", "test": "Induction cell cycle arrest in human MDA-MB-231 cells assessed as accumulation at G2 phase at 0.4 uM measured after 48 hrs by PI staining based flow cytometry (reference value: 10.2%)", "format": "functional"}, "[20]": {"tested_on": "MDA-MB-231", "test": "Induction cell cycle arrest in human MDA-MB-231 cells assessed as increase in p21 expression at 0.4 uM measured after 48 hrs by Western blot analysis", "format": "functional, cell-based"}, "[21]": {"tested_on": "MDA-MB-231", "test": "Induction cell cycle arrest in human MDA-MB-231 cells assessed as increase in CDK2 expression at 0.4 uM measured after 48 hrs by Western blot analysis", "format": "functional, cell-based"}, "[22]": {"tested_on": "MDA-MB-231", "test": "Effect on PI3K expression in human MDA-MB-231 cells at 0.4 uM measured after 48 hrs by Western blot analysis", "format": "functional, cell-based"}, "[23]": {"tested_on": "MDA-MB-231", "test": "Inhibition of PI3K phosphorylation in human MDA-MB-231 cells at 0.4 uM measured after 48 hrs by Western blot analysis", "format": "cell-based"}, "[24]": {"tested_on": "MDA-MB-231", "test": "Effect on Akt expression in human MDA-MB-231 cells at 0.4 uM measured after 48 hrs by Western blot analysis", "format": "functional, cell-based"}, "[25]": {"tested_on": "MDA-MB-231", "test": "Induction of apoptosis in human MDA-MB-231 cells assessed as increase in cleaved PARP level at 0.4 uM incubated for 48 hrs by Western blot analysis", "format": "functional, cell-based"}, "[26]": {"tested_on": "Breast carcinoma cell", "test": "Antitumour activity against human TNBC breast carcinoma cell tissue xenografted PDTX SCID mouse model assessed as tumor cell necrosis […] at 5 to 20 mg/kg treated for 7 days", "format": "functional, organism-based", "conditions": "dose 5-20 mg/kg, time 7.0 day"}, "[27]": {"test": "Toxicity in PDTX SCID mouse model at 5 to 20 mg/kg measured upto 7 days", "format": "organism-based", "conditions": "in vivo, 168 h, dose 5-20 mg/kg, time <=7 day"}},
  "note": "Calls of active or inactive are those of the source. No cut-off for these calls is given here.",
  "data": [
    {"smiles": "O=C1c2cc(Cl)ccc2OC2c3oc4ccc(O)cc4c3CCN12", "note": "(configuration not stated)", "values": [
      {"measurement": "inhibition at 10 µM", "setting": "[1]", "result": 84.3, "unit": "%"},
      {"measurement": "inhibition at 1 µM", "setting": "[2]", "result": 82.4, "unit": "%"},
      {"measurement": "IC50", "setting": "[3]", "result": 5.24, "unit": "µM"},
      {"measurement": "IC50", "setting": "[4]", "result": 620, "unit": "nM"},
      {"measurement": "IC50", "setting": "[5]", "result": 1020, "unit": "nM"},
      {"measurement": "inhibition", "setting": "[6]", "result": "inactive"},
      {"measurement": "Activity", "setting": "[7]", "result": "Active"},
      {"measurement": "Activity", "setting": "[8]", "result": "Active"},
      {"measurement": "Ratio IC50", "setting": "[9]", "result": 12.7},
      {"measurement": "Activity", "setting": "[10]", "result": "Active"},
      {"measurement": "Activity", "setting": "[11]", "result": "Active"},
      {"measurement": "Activity", "setting": "[12]", "result": 18.5, "unit": "%"},
      {"measurement": "Activity", "setting": "[13]", "result": "Active"},
      {"measurement": "Activity", "setting": "[14]", "result": "Active"},
      {"measurement": "Activity", "setting": "[15]", "result": 72.3, "unit": "%"},
      {"measurement": "Activity", "setting": "[16]", "result": 5.3, "unit": "%"},
      {"measurement": "Activity", "setting": "[17]", "result": 22.4, "unit": "%"},
      {"measurement": "Activity", "setting": "[18]", "result": 70.2, "unit": "%"},
      {"measurement": "Activity", "setting": "[19]", "result": 6.9, "unit": "%"},
      {"measurement": "Activity", "setting": "[20]", "result": "Active"},
      {"measurement": "Activity", "setting": "[21]", "result": "Active"},
      {"measurement": "Activity", "setting": "[22]", "result": "inactive"},
      {"measurement": "inhibition", "setting": "[23]", "result": "Active"},
      {"measurement": "Activity", "setting": "[24]", "result": "inactive"},
      {"measurement": "Activity", "setting": "[25]", "result": "Active"},
      {"measurement": "Activity", "setting": "[26]", "result": "Active"},
      {"measurement": "Activity", "setting": "[27]", "result": "Non-Toxic"}
    ]}
  ]
}
